According to ChEMBL document CHEMBL4177630, “Discovery and evaluation of Cav3.2-selective T-type calcium channel blockers” (Bioorg Med Chem Lett, 2017):
Converted amounts (≈) assume the structure as drawn.

What was measured:
[1] = Aqueous solubility of the compound at pH 7; assay type: physicochemical
[2] = Intrinsic clearance in rat liver microsomes; assay type: ADME, microsome; settings: read-out: CLH
[3] = Plasma concentration in Wistar rat at 10 mg/kg, po measured after 1 hr; assay type: ADME, organism-based
[4] = Fraction unbound in Wistar rat plasma at 10 mg/kg, po measured after 1 hr; assay type: ADME, organism-based; settings: in vivo
[5] = Drug level in Wistar rat brain at 10 mg/kg, po measured after 1 hr; assay type: ADME, organism-based; settings: read-out: Drug uptake
[6] = Drug level in Wistar rat CSF at 10 mg/kg, po measured after 1 hr; assay type: ADME, organism-based, Cerebrospinal fluid; settings: read-out: Drug uptake
[7] = Plasma concentration in Wistar rat at 100 mg/kg, po measured after 1 hr; assay type: ADME, organism-based
[8] = Fraction unbound in Wistar rat plasma at 100 mg/kg, po measured after 1 hr; assay type: ADME, organism-based; settings: in vivo
[9] = Drug level in Wistar rat brain at 100 mg/kg, po measured after 1 hr; assay type: ADME, organism-based; settings: read-out: Drug uptake
[10] = Drug level in Wistar rat CSF at 100 mg/kg, po measured after 1 hr; assay type: ADME, organism-based, Cerebrospinal fluid; settings: read-out: Drug uptake

| Structure (SMILES) | solubility [1] [µg/mL] | microsomal CLint [2] [µL/min/mg] | concentration at 1 h [3] [nM] | Cp(f) [4] [nM] | concentration at 1 h [5] [nM] | concentration at 1 h [6] [nM] | concentration at 1 h [7] [nM] | Cp(f) [8] [nM] | concentration at 1 h [9] [nM] | concentration at 1 h [10] [nM] |
| --- | --- | --- | --- | --- | --- | --- | --- | --- | --- | --- |
| Cc1onc(CNC(=O)c2c3c(c(Cl)n2C)CC(C)(C)CC3)c1Cn1cccn1 | 7 (≈ 16.8 µM) | > 1250 | – | – | – | – | 530 | 1.6 | 1020 | 17 |
| Cn1c(Cl)c2c(c1C(=O)NCc1ncccc1N1CC[C@H](F)C1)CCC(C)(C)C2 | < 1 | – | – | – | – | – | – | – | – | – |

Continued, values first:

| solubility [1] [µg/mL] | microsomal CLint [2] [µL/min/mg] | concentration at 1 h [3] [nM] | Cp(f) [4] [nM] | concentration at 1 h [5] [nM] | concentration at 1 h [6] [nM] | concentration at 1 h [7] [nM] | Cp(f) [8] [nM] | concentration at 1 h [9] [nM] | concentration at 1 h [10] [nM] | Structure (SMILES) |
| --- | --- | --- | --- | --- | --- | --- | --- | --- | --- | --- |
| < 1 | 420 | 353 | < 0.35 | 4720 | 6 | – | – | – | – | Cn1c(Cl)c2c(c1C(=O)NCc1cccnc1OCC(F)(F)F)CCC(C)(C)C2 |
| 1 (≈ 2.33 µM) | 645 | – | – | – | – | 5210 | 5.2 | 12100 | 23 | Cn1c(Cl)c2c(c1C(=O)NCc1ccncc1OCC(F)(F)F)CCC(C)(C)C2 |
| < 1 | > 1250 | – | – | – | – | 397 | < 0.4 | 436 | < 0.7 | CC(C)OCc1ccccc1CNC(=O)c1c2c(c(Cl)n1C)CC(C)(C)CC2 |
